Laboratory results as given in patent US20120309734A1, “COMBRETASTATIN DERIVATIVES AND USES THEREFOR” (priority 2009, published 2012).

How the values were obtained:
SK-MEL-5 = experiment: NCI60 cell line screen; settings: Homo sapiens
SNB-19 = experiment: NCI60 cell line screen; settings: Homo sapiens
SF-295 = experiment: NCI60 cell line screen; settings: Homo sapiens
NCI-H460 = experiment: NCI60 cell line screen; settings: Homo sapiens
SF-539 = experiment: NCI60 cell line screen; settings: Homo sapiens
IGROV1 = experiment: NCI60 cell line screen; settings: Homo sapiens, IGROV-1
OVCAR-4 = experiment: NCI60 cell line screen; settings: Homo sapiens
A498 = experiment: NCI60 cell line screen; settings: Homo sapiens
SK-MEL-28 = experiment: NCI60 cell line screen; settings: Homo sapiens
SN12C = experiment: NCI60 cell line screen; settings: Homo sapiens
LOX IMVI = experiment: NCI60 cell line screen; settings: Homo sapiens
T-47D = experiment: NCI60 cell line screen; settings: Homo sapiens, T47D
M14 = experiment: NCI60 cell line screen; settings: Homo sapiens
HOP-92 = experiment: NCI60 cell line screen; settings: Homo sapiens
ACHN = experiment: NCI60 cell line screen; settings: Homo sapiens
MDA-MB-435 = experiment: NCI60 cell line screen; settings: Homo sapiens
RPMI-8226 = experiment: NCI60 cell line screen; settings: Homo sapiens
HCT-2998 = experiment: NCI60 cell line screen
SK-OV-3 = experiment: NCI60 cell line screen; settings: Homo sapiens
BT-549 = experiment: NCI60 cell line screen; settings: Homo sapiens
786-0 = experiment: NCI60 cell line screen; settings: Homo sapiens
NCI/ADR-RES = experiment: NCI60 cell line screen; settings: Homo sapiens
UACC-257 = experiment: NCI60 cell line screen; settings: Homo sapiens
NCI-H23 = experiment: NCI60 cell line screen; settings: Homo sapiens
OVCAR-8 = experiment: NCI60 cell line screen; settings: Homo sapiens
SF-268 = experiment: NCI60 cell line screen; settings: Homo sapiens
SK-MEL-2 = experiment: NCI60 cell line screen; settings: Homo sapiens
TK-10 = experiment: NCI60 cell line screen; settings: Homo sapiens
COLO 205 = experiment: NCI60 cell line screen; settings: Homo sapiens
MDA-MB-231/ATCC = experiment: NCI60 cell line screen; settings: Homo sapiens
SW-620 = experiment: NCI60 cell line screen; settings: Homo sapiens
UACC-62 = experiment: NCI60 cell line screen; settings: Homo sapiens
MDA-MB-468 = experiment: NCI60 cell line screen; settings: Homo sapiens
RXF 393 = experiment: NCI60 cell line screen; settings: Homo sapiens
UO-31 = experiment: NCI60 cell line screen; settings: Homo sapiens
DU-145 = experiment: NCI60 cell line screen; settings: Homo sapiens

## COc1ccc(C2C(c3cccs3)C(=O)N2c2cc(OC)c(OC)c(OC)c2)cc1 (stereo not drawn) [Compound 12, 4-(4-Methoxyphenyl)-3-thiophen-2-yl-1-(3,4,5-trimethoxyphenyl)-azetidin-2-one]
SK-MEL-5
  GI50: 0.014 µM
SNB-19
  GI50: 0.043 µM
SF-295
  GI50: < 0.01 µM
NCI-H460
  GI50: 0.03 µM
SF-539
  GI50: < 0.01 µM
IGROV1
  GI50: 0.02 µM
OVCAR-4
  GI50: 0.013 µM
A498
  GI50: < 0.01 µM
SK-MEL-28
  GI50: 0.01 µM
SN12C
  GI50: < 0.01 µM
LOX IMVI
  GI50: < 0.01 µM
T-47D
  GI50: > 1000 µM
M14
  GI50: < 0.01 µM
other
  melting point: 115 °C
HOP-92
  GI50: 0.051 µM
ACHN
  GI50: < 0.01 µM
MDA-MB-435
  GI50: < 0.01 µM
RPMI-8226
  GI50: < 0.01 µM
HCT-2998
  GI50: 0.03 µM
SK-OV-3
  GI50: 0.038 µM
BT-549
  GI50: < 0.01 µM
786-0
  GI50: 0.031 µM
NCI/ADR-RES
  GI50: < 0.01 µM
UACC-257
  GI50: 67.8 µM
NCI-H23
  GI50: 0.036 µM
OVCAR-8
  GI50: < 0.01 µM
SF-268
  GI50: 0.028 µM
SK-MEL-2
  GI50: 7.79 µM
TK-10
  GI50: < 0.01 µM
COLO 205
  GI50: 0.015 µM
MDA-MB-231/ATCC
  GI50: 0.01 µM
SW-620
  GI50: 0.01 µM
UACC-62
  GI50: < 0.01 µM
MDA-MB-468
  GI50: < 0.01 µM
RXF 393
  GI50: < 0.01 µM
UO-31
  GI50: 0.038 µM
DU-145
  GI50: < 0.01 µM

## COc1ccc(C2C(c3ccccc3)C(=O)N2c2cc(OC)c(OC)c(OC)c2)cc1O (stereo not drawn) [Compound 4, 4-(3-Hydroxy-4-methoxyphenyl)-3-phenyl-1-(3,4,5-trimethoxyphenyl)-azetidin-2-one]
SK-MEL-5
  GI50: < 0.01 µM
SNB-19
  GI50: 0.025 µM
SF-295
  GI50: < 0.01 µM
NCI-H460
  GI50: < 0.01 µM
SF-539
  GI50: < 0.01 µM
IGROV1
  GI50: < 0.01 µM
OVCAR-4
  GI50: 0.018 µM
A498
  GI50: < 0.01 µM
SK-MEL-28
  GI50: < 0.01 µM
SN12C
  GI50: < 0.01 µM
LOX IMVI
  GI50: < 0.01 µM
T-47D
  GI50: 31.2 µM
M14
  GI50: < 0.01 µM
other
  melting point: 110 °C
HOP-92
  GI50: 5.15 µM
ACHN
  GI50: < 0.01 µM
MDA-MB-435
  GI50: < 0.01 µM
RPMI-8226
  GI50: < 0.01 µM
HCT-2998
  GI50: 0.035 µM
SK-OV-3
  GI50: 0.037 µM
BT-549
  GI50: < 0.01 µM
786-0
  GI50: 0.034 µM
NCI/ADR-RES
  GI50: < 0.01 µM
UACC-257
  GI50: 22.4 µM
NCI-H23
  GI50: < 0.01 µM
OVCAR-8
  GI50: 0.01 µM
SF-268
  GI50: < 0.01 µM
SK-MEL-2
  GI50: 0.014 µM
TK-10
  GI50: < 0.01 µM
COLO 205
  GI50: 0.019 µM
MDA-MB-231/ATCC
  GI50: < 0.01 µM
SW-620
  GI50: < 0.01 µM
UACC-62
  GI50: < 0.01 µM
MDA-MB-468
  GI50: < 0.01 µM
RXF 393
  GI50: < 0.01 µM
UO-31
  GI50: 0.032 µM
DU-145
  GI50: < 0.01 µM

## COc1ccc(C2C(c3ccccc3)C(=O)N2c2cc(OC)c(OC)c(OC)c2)cc1 (stereo not drawn) [Compound 8, 4-(4-Methoxy-phenyl)-3-phenyl-1-(3,4,5-trimethoxy-phenyl)-azetidin-2-one]
SK-MEL-5
  GI50: 0.124 µM
SNB-19
  GI50: 0.28 µM
SF-295
  GI50: 0.035 µM
NCI-H460
  GI50: 0.198 µM
SF-539
  GI50: 0.033 µM
IGROV1
  GI50: 0.285 µM
OVCAR-4
  GI50: 0.0825 µM
A498
  GI50: 0.0375 µM
SK-MEL-28
  GI50: 0.405 µM
SN12C
  GI50: 0.312 µM
LOX IMVI
  GI50: 0.0676 µM
T-47D
  GI50: > 100 µM
M14
  GI50: 0.132 µM
other
  melting point: 108 °C
HOP-92
  GI50: 22.7 µM
ACHN
  GI50: 0.138 µM
MDA-MB-435
  GI50: 0.0239 µM
RPMI-8226
  GI50: 0.0293 µM
HCT-2998
  GI50: 0.349 µM
SK-OV-3
  GI50: 0.412 µM
BT-549
  GI50: 0.117 µM
786-0
  GI50: 0.432 µM
NCI/ADR-RES
  GI50: 0.0425 µM
UACC-257
  GI50: 27.9 µM
NCI-H23
  GI50: 0.427 µM
OVCAR-8
  GI50: 0.125 µM
SF-268
  GI50: 0.354 µM
SK-MEL-2
  GI50: > 100 µM
TK-10
  GI50: 6.78 µM
COLO 205
  GI50: 0.166 µM
MDA-MB-231/ATCC
  GI50: 0.2 µM
SW-620
  GI50: 0.0487 µM
UACC-62
  GI50: 0.0405 µM
MDA-MB-468
  GI50: 0.0684 µM
RXF 393
  GI50: 0.0365 µM
UO-31
  GI50: 0.396 µM
DU-145
  GI50: 0.0569 µM
